# Results as given in article PMC3206013, “Unique Interplay between Sugar and Lipid in Determining the Antigenic Potency of Bacterial Antigens for NKT Cells” (PLoS Biology, 2011).
# Substitutions are numbered along the chain they refer to.
# How the values were obtained:
# Assay in all cases: SPR loading efficiency, L363 Fab on immobilised loaded CD1d
# Type in all cases: binding
# [1] = biological target: T1, mCD1d (birA-tag mCD1d/β2m) (Mus musculus, UniProt P11609); conditions: 16 h with 1 µg/ml α-GalCer; reference set at 100%
# T1 construct: gene Cd1d1; soluble glycosylated CD1d/β2m heterodimer, birA tag, biotinylated; with Beta-2-microglobulin
# T1 sequence (P11609 19-297): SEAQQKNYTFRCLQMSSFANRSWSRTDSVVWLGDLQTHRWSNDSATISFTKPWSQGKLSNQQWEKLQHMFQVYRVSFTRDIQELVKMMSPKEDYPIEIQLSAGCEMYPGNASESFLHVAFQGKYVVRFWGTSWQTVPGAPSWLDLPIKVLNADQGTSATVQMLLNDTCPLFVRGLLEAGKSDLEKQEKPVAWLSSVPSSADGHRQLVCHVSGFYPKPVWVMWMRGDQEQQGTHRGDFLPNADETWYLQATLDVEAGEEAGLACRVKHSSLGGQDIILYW
# T1 sequence (P01887 21-119 partner): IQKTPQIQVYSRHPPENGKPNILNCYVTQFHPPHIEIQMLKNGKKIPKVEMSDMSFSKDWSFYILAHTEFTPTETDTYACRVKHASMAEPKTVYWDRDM
# [2] = biological target: T2, mCD1d (birA-tag mCD1d/β2m) (Mus musculus, UniProt P11609, M180A); conditions: 16 h with 1 µg/ml α-GalCer; WT set at 100%; printed Met162Ala and M162A, Met62Ala
# T2 construct: gene Cd1d1; soluble glycosylated CD1d/β2m heterodimer, birA tag, biotinylated; with Beta-2-microglobulin
# T2 sequence (P11609 19-297 M180A): T1 sequence (P11609 19-297) with M162A
# T2 sequence (P01887 21-119 partner): T1 sequence (P01887 21-119 partner)
# [3] = biological target: T3, mCD1d (birA-tag mCD1d/β2m) (Mus musculus, UniProt P11609, V167L); conditions: 16 h with 1 µg/ml α-GalCer; WT set at 100%
# T3 construct: gene Cd1d1; soluble glycosylated CD1d/β2m heterodimer, birA tag, biotinylated; with Beta-2-microglobulin
# T3 sequence (P11609 19-297 V167L): T1 sequence (P11609 19-297) with V149L
# T3 sequence (P01887 21-119 partner): T1 sequence (P01887 21-119 partner)
# [4] = biological target: T4, mCD1d (birA-tag mCD1d/β2m) (Mus musculus, UniProt P11609, L168V); conditions: 16 h with 1 µg/ml α-GalCer; WT set at 100%
# T4 construct: gene Cd1d1; soluble glycosylated CD1d/β2m heterodimer, birA tag, biotinylated; with Beta-2-microglobulin
# T4 sequence (P11609 19-297 L168V): T1 sequence (P11609 19-297) with L150V
# T4 sequence (P01887 21-119 partner): T1 sequence (P01887 21-119 partner)
# [5] = biological target: T5, mCD1d (birA-tag mCD1d/β2m) (Mus musculus, UniProt P11609, L102F); conditions: 16 h with 1 µg/ml α-GalCer; WT set at 100%; lower than WT but never below 65%
# T5 construct: gene Cd1d1; soluble glycosylated CD1d/β2m heterodimer, birA tag, biotinylated; with Beta-2-microglobulin
# T5 sequence (P11609 19-297 L102F): T1 sequence (P11609 19-297) with L84F
# T5 sequence (P01887 21-119 partner): T1 sequence (P01887 21-119 partner)
smiles,measurement,setting,value
CCCCCCCCCCCCCCCCCCCCCCCCCC(=O)N[C@@H](CO[C@H]1O[C@H](CO)[C@H](O)[C@H](O)[C@H]1O)[C@H](O)[C@H](O)CCCCCCCCCCCCCC [α-GalCer],"antigen loading efficiency, % of WT",[1],Relative antigen loading efficiencies by the mCD1d mutants as determined by surface plasmon resonance
same,"antigen loading efficiency, % of WT",[2],Leu84Phe and Met62Ala mutants showed lower levels of antigen loading compared to wild type
same,"antigen loading efficiency, % of WT",[3],we measured the loading efficiency of α-GalCer on each mutant by surface plasmon resonance
same,"antigen loading efficiency, % of WT",[4],we measured the loading efficiency of α-GalCer on each mutant by surface plasmon resonance
same,"antigen loading efficiency, % of WT",[5],Leu84Phe and Met62Ala mutants showed lower levels of antigen loading compared to wild type
